# Laboratory results as given in ChEMBL document CHEMBL4308911, “Elucidating the mode of action for thiophene-based organic D-π-A sensitizers for use in photodynamic therapy” (Bioorg Med Chem, 2019).
# The source made the active and inactive calls. The calls are words filed in the database; no cut-off is given here.
# Assays:
# [1] = Dark toxicity against human HeLa cells assessed as reduction in cell viability after 48 hrs by MTT assay; format: cell-based
# [2] = system: HeLa; assay: Phototoxicity against human HeLa cells assessed as reduction in cell viability preincubated for 1 hr followed by LED light irradiation at 8 +/- 0.5 mW/cm2 for 15 mins and measured after 48 hrs by MTT assay; format: functional, cell-based; details: light or radiation study
# [3] = Drug uptake mitochondria of in human HeLa cells at 10 uM after 1 hr by Mito tracker red-based confocal microscopic analysis; format: ADME
# [4] = Drug uptake lysosome of in human HeLa cells at 10 uM after 1 hr by Lyso tracker red-based confocal microscopic analysis; format: ADME, subcellular
# [5] = Aggregation property of the compound in potassium phosphate buffer assessed as particle size at 10 uM by DLS method; format: physicochemical
# [6] = Drug uptake in human HeLa cells at 20 uM by fluorescence assay; format: ADME, cell-based; details: TDE = time-dependent effect
# [7] = Drug uptake in human HeLa cells at 20 uM at 37 degC after 1 hr by fluorescence assay; format: ADME, cell-based
# [8] = Drug uptake in human HeLa cells at 20 uM at 4 degC after 1 hr by fluorescence assay; format: ADME, cell-based
# [9] = Drug uptake in human HeLa cells at 20 uM after 1 hr in presence of lipid raft inhibitor methyl-beta-cyclodextrin by fluorescence assay; format: ADME, cell-based
# [10] = Induction of singlet oxygen production irradiated with 425 to 479 nm Nd:YAG laser light measured after 100 nanoseconds post irradiation; format: functional
# [11] = Drug uptake in human HeLa cells at 20 uM after 1 hr in presence of sucrose by fluorescence assay; format: ADME, cell-based
Compound,Drug uptake [3],Drug uptake [4],Activity [5],Drug uptake [6],Drug uptake [7],Drug uptake [8],Drug uptake [9],Drug uptake [11],IC50 at 48 h [1] [µM],IC50 [2] [µM],Activity [10]
O=Cc1ccc(-c2ccc(-c3ccc(N(c4ccccc4)c4ccccc4)cc3)s2)s1,Not Active,Not Active,Not Active,,,,,,88.9,9.5,
N#C/C(=C\c1ccc(-c2ccc(-c3ccc(N(c4ccccc4)c4ccccc4)cc3)s2)s1)C(N)=O,Active,Active,1175 nm,,Active,Not Active,Active,Not Active,63.1,8.8,
COC(=O)/C(C#N)=C/c1ccc(-c2ccc(-c3ccc(N(c4ccccc4)c4ccccc4)cc3)s2)s1,Not Active,Not Active,Not Active,,,,,,> 100,> 100,

# Further lines, with some results ahead:
Drug uptake [3],Drug uptake [4],Activity [5],Drug uptake [6],Drug uptake [7],Drug uptake [8],Drug uptake [9],Drug uptake [11],Compound,IC50 at 48 h [1] [µM],IC50 [2] [µM],Activity [10]
Not Active,Not Active,Not Active,,,,,,CC(C)(C)OC(=O)/C(C#N)=C/c1ccc(-c2ccc(-c3ccc(N(c4ccccc4)c4ccccc4)cc3)s2)s1,> 100,> 100,
Active,Active,175 nm,Tde,Active,Not Active,Not Active,Not Active,N#C/C(=C\c1ccc(-c2ccc(-c3ccc(N(c4ccccc4)c4ccccc4)cc3)s2)s1)C(=O)O,21.9,0.21,Active
